Where two headings read alike, the source gives them in different places.

The target of data set [1] is T1, α1B Human Adrenergic Receptor (Homo sapiens, UniProt P35368).
T1 construct: The entire coding region of α1B(1563 bp); expressed in transfected cells; host or cells: LM(tk-) cells
T1 sequence (P35368 1-520): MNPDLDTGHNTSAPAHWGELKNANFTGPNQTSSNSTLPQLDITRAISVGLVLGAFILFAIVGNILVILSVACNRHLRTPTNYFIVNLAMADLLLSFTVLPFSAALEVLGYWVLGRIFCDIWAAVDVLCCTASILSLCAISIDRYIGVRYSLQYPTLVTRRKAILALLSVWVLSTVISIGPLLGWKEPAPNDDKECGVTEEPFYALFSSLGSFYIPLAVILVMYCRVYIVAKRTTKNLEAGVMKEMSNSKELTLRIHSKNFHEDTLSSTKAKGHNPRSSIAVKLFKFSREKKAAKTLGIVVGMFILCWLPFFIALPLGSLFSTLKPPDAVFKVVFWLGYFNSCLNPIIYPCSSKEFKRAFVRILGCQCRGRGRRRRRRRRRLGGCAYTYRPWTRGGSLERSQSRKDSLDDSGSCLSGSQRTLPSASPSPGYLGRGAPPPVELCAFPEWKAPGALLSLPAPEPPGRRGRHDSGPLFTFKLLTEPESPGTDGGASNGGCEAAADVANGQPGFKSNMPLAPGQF
Put plainly: Equilibrium competition binding, [3H] prazosin, membranes of transfected LM(tk-) cells.

The target in data set [2] is T2, α2C Human Adrenergic Receptor (Homo sapiens, UniProt P18825).
T2 sequence (P18825 1-462): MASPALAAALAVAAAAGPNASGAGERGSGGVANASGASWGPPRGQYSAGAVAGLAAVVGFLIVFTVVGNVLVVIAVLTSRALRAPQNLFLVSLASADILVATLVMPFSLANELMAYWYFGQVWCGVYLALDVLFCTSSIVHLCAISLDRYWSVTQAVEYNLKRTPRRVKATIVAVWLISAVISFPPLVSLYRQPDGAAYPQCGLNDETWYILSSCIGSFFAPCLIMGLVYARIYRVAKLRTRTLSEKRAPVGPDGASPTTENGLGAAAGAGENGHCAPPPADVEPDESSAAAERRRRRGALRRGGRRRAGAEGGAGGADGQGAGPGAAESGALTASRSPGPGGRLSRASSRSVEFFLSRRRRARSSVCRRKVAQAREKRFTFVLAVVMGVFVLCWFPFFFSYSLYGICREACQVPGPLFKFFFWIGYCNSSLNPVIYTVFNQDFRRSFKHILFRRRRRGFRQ
Put plainly: Equilibrium competition binding, [3H] rauwolscine, membranes of transfected LM(tk-) cells.

The target of data set [3] is T3, α2B Human Adrenergic Receptor (Homo sapiens, UniProt P18089).
T3 construct: expressed in transfected cells; host or cells: Y-1 cells
T3 sequence (P18089 1-450): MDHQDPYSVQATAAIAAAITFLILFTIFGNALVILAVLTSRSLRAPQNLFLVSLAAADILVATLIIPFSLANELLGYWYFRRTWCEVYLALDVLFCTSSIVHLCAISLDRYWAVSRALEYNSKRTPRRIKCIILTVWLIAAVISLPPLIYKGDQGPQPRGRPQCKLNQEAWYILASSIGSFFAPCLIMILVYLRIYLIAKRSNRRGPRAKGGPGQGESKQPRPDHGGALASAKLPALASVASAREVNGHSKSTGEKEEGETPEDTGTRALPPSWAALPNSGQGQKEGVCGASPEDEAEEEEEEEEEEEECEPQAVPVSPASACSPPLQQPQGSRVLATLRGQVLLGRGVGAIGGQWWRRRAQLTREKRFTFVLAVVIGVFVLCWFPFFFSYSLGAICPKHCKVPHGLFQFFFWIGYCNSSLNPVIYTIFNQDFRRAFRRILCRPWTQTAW
Put plainly: Equilibrium competition binding, [3H] rauwolscine, membranes of transfected Y-1 cells.

For data set [4], the target named is T2, α2C Human Adrenergic Receptor. It is filed as cell-based. Details: The entire coding region of α2C (1383 bp), including 2 bp of 5′ UT and 400 bp of 3′ UT; expressed in transfected cells; host or cells: LM(tk-) cells. The settings on record: for I.A Alpha-2 C: functional cAMP assay. Background: Cyclic AMP is a second messenger, typically raised through Gs and lowered through Gi signalling.

Setting [5] is: cloned human receptor, [3H] prazosin, read-out: pKi Alpha-1 B (converted).
[6] abbreviates: cloned human receptor, [3H] rauwolscine, read-out: pKi Alpha-2 B (converted).
Setting [7] is: inhibition of forskolin-stimulated cAMP, NA: Not Active, read-out: pEC50 Alpha-2 C (converted).
[8] abbreviates: cloned human receptor, [3H] rauwolscine.

As for `Brc1c(NC2=NCCN2)ccc2nc(C(c3ccccc3)c3ccccc3)[nH]c12` [Example 48, 2-Diphenylmethyl-4-bromo-5-(2-imidazolin-2-ylamino)Benzimidazole], the figures for the Ki in data set [1] (setting [5]), in data set [2] and in data set [3] (setting [6]) were 49 nM, 245 nM and 661 nM, respectively. The “I.A Alpha-2 C” value in data set [4] is 0.60. Moreover, the EC50 in data set [4] (setting [7]) was 1.35 nM.
With `CCc1nc2ccc(NC3=NCCN3)c(Br)c2[nH]1` [Example 43, 2-Ethyl-4-bromo-5-(2-imidazolin-2-ylamino)Benzimidazole], the Ki in data set [1] (setting [5]) was 6920 nM; in data set [3] it was 33.9 nM. In addition, the “I.A Alpha-2 C” value in data set [4] was 0.90.
Take `Clc1c(NC2=NCCN2)ccc2nc[nH]c12` [Example 3, 4-Chloro-5-(2-imidazolin-2-ylamino)Benzimidazole]: the results for the Ki in data set [1] (setting [5]), in data set [2] and in data set [3] (setting [6]) were 8130 nM, 100 nM and 15.5 nM, respectively. The molecule also had an EC50 in data set [4] of 0.562 nM. The “I.A Alpha-2 C” value in data set [4] was 1.00.
As to `CC(C)c1nc2ccc(NC3=NCCN3)c(Br)c2[nH]1` [Example 44, 2-Isopropyl-4-bromo-5-(2-imidazolin-2-ylamino)Benzimidazole], the values for the Ki in data set [1] (setting [5]), in data set [2] and in data set [3] were 5890 nM, 214 nM and 46.8 nM, respectively. Also, in data set [4], the “I.A Alpha-2 C” value is 0.80. In addition, the EC50 in data set [4] (setting [7]) was 182 nM.
With `c1nc2ccc(NC3=NCCN3)cc2[nH]1` [Example 1, 5-(2-Imidazolin-2-ylamino)Benzimidazole], the Ki in data set [1] (setting [5]) is 24500 nM; in data set [2] it was 70.8 nM; in data set [3], 74.1 nM. Besides, the EC50 in data set [4] is 2.75 nM. Further, the “I.A Alpha-2 C” value in data set [4] is reported as 1.00.
In the case of `CCCc1c(NC2=NCCN2)ccc2nc[nH]c12` [Example 7, 4-n-Propyl-5-(2-imidazolin-2-ylamino)Benzimidazole], the Ki in data set [1] (setting [5]) is 1230 nM. For the same molecule, the Ki in data set [2] is 41.7 nM. In addition, in data set [4], the EC50 was 6.17 nM and the “I.A Alpha-2 C” value is on record as 1.00.
Turning to `Cc1c(N=C2NCCN2)ccc2[nH]cnc12` [Example 4, 4-Methyl-5-(2-imidazolin-2-ylamino)Benzimidazole], the figures for the Ki in data set [1] (setting [5]), in data set [2] and in data set [3] (setting [6]) were 2750 nM, 25.7 nM and 9.12 nM, respectively. Besides, the EC50 in data set [4] (setting [7]) was 0.355 nM.
On to `CCCCc1c(NC2=NCCN2)ccc2nc[nH]c12` [Example 8, 4-n-Butyl-5-(2-imidazolin-2-ylamino)Benzimidazole], for which the Ki in data set [1] (setting [5]) is 2630 nM; in data set [3] (setting [6]), 50.1 nM. In data set [4], the “I.A Alpha-2 C” value was 1.00.
In the case of `Cc1nc2ccc(NC3=NCCN3)c(Br)c2[nH]1` [Example 42, 2-Methyl-4-bromo-5-(2-imidazolin-2-ylamino)Benzimidazole], the Ki in data set [1] (setting [5]) was 8510 nM; in data set [2], 214 nM; in data set [3], 23.4 nM.
For the molecule `COc1ccc(Cn2cnc3c(Br)c(NC4=NCCN4)ccc32)cc1` [Example 36, 1-(4-Methoxybenzyl)-4-bromo-5-(2-imidazolin-2-ylamino)Benzimidazole], the Ki is 11000 nM in data set [1], 166 nM in data set [2] and 107 nM in data set [3] (setting [6]).
Regarding `Cn1cnc2cc(NC3=NCCN3)ccc21` [Example 9, 1-Methyl-5-(2-imidazolin-2-ylamino)Benzimidazole], the figures for the Ki in data set [1] (setting [5]) and in data set [3] (setting [6]) were 13500 nM and 46.8 nM, respectively. For the same molecule, the “I.A Alpha-2 C” value in data set [4] came to 1.00.
`Brc1c(NC2=NCCN2)ccc2nc[nH]c12` [Example 2, 4-Bromo-5-(2-imidazolin-2-ylamino)Benzimidazole]: the Ki in data set [1] is 5890 nM; in data set [2], 97.7 nM; in data set [3] (setting [6]) it was 20.4 nM. For the same molecule, in data set [4], the “I.A Alpha-2 C” value stood at 1.00. In data set [4] (setting [7]), the EC50 is 117 nM.
For the molecule `FC(F)(F)c1nc2ccc(NC3=NCCN3)c(Br)c2[nH]1` [Example 46, 2-Trifluoromethyl-4-bromo-5-(2-imidazolin-2-ylamino)Benzimidazole], the Ki in data set [1] (setting [5]) was 28200 nM; in data set [3] it was 105 nM. The “I.A Alpha-2 C” value in data set [4] is 0.90.
The molecule `Cn1cnc2c(Br)c(NC3=NCCN3)ccc21` [Example 10, 1-Methyl-4-bromo-5-(2-imidazolin-2-ylamino)Benzimidazole] came in with a melting point of 237 to 238 °C. In addition, the Ki in data set [1] (setting [5]) was 3800 nM. The Ki in data set [2] was 15.5 nM. For the same molecule, in data set [3], the Ki was 28.2 nM. In data set [4], the EC50 is 2.34 nM and the “I.A Alpha-2 C” value was found to be 1.00.
With `Clc1cc(NC2=NCCN2)cc2[nH]cnc12` [Example 53, 7-Chloro-5-(2-imidazolin-2-ylamino)Benzimidazole], the Ki in data set [1] (setting [5]) was 1910 nM; in data set [2], 89.1 nM; in data set [3] it was 18.2 nM. This molecule also showed an EC50 in data set [4] of 1.07 nM. Further, the “I.A Alpha-2 C” value in data set [4] is 1.00.
The corresponding values for `Brc1cc2nc[nH]c2c(Br)c1NC1=NCCN1` [Example 50, 4,6-Dibromo-5-(2-imidazolin-2-ylamino)Benzimidazole] are 166 nM, 24.5 nM, 2.34 nM, 70.8 nM and 1.00.
In the same order, the values of `Clc1cc(NC2=NCCN2)c(Br)c2[nH]cnc12` [Example 60, 4-Bromo-7-chloro-5-(2-imidazolin-2-ylamino)Benzimidazole] are 316 nM, 16.2 nM, 0.468 nM, 0.398 nM and 1.
The corresponding values for `Ic1c(NC2=NCCN2)ccc2nc[nH]c12` [Example 5, 4-Iodo-5-(2-imidazolin-2-ylamino)Benzimidazole] are 1820 nM, 24 nM, 30.9 nM, 1.35 nM and 1.00.
For `CC(C)(C)c1nc2ccc(NC3=NCCN3)c(Br)c2[nH]1` [Example 45, 2-tert-Butyl-4-bromo-5-(2-imidazolin-2-ylamino)Benzimidazole], the Ki in data set [1] (setting [5]) was 11500 nM; in data set [3] it was 83.2 nM. Moreover, the “I.A Alpha-2 C” value in data set [4] worked out at 0.60.
`CCCCc1cc(NC2=NCCN2)cc2[nH]cnc12` [Example 56, 7-Butyl-5-(2-imidazolin-2-ylamino)Benzimidazole]: the Ki in data set [1] (setting [5]) is 5130 nM; in data set [3] (setting [6]), 182 nM. In data set [4], the “I.A Alpha-2 C” value is given as 1.00.
As for `Cn1cnc2ccc(NC3=NCCN3)c(Br)c21` [Example 12, 3-Methyl-4-bromo-5-(imidazolin-2-ylamino)Benzimidazole], the “pKi Alpha-1 B” value in data set [1] (cloned human receptor, [3H] prazosin) is given as 6.46. For the same molecule, in data set [2] (setting [8]), the “pKi Alpha-2 C” value is recorded as 7.59. Besides, in data set [3] (setting [8]), the “pKi Alpha-2 B” value is 7.84. Moreover, the “I.A Alpha-2 C” value in data set [4] was 1.00. Besides, the “pEC50 Alpha-2 C” value in data set [4] (inhibition of forskolin-stimulated cAMP, NA: Not Active) was found to be 7.76.
Regarding `OCCn1cnc2c(Br)c(NC3=NCCN3)ccc21` [Example 38, 1-(2-Hydroxyethyl)-4-bromo-5-(2-imidazolin-2-ylamino)Benzimidazole], the values for the Ki in data set [1], in data set [2] and in data set [3] (setting [6]) were 17400 nM, 1290 nM and 525 nM, respectively. Moreover, the “I.A Alpha-2 C” value in data set [4] was found to be 1.00. Also, the EC50 in data set [4] (setting [7]) was 363 nM.

By melting point is commonly meant the temperature, or range, at which the solid turns liquid.
